Some test systems named below: ACHN renal; COLO 205 colon; EKVX NSCLC; MALME-3M melanoma; RPMI-8226 leukemia; SK-MEL-5 melanoma; SNB-75 CNS; SR leukemia; BT-549 breast; PC-3 prostate.
What all share (assay): inhibition of tumour cell growth, NCI panel, 48 h

GI50 and TGI data for 20 compounds are collected here from PubChem BioAssay (NCI).

Each structure is given as a SMILES string.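 Tested at 5 concentrations; 48 h exposure; 96-well plates; endpoints linearly interpolated, else capped at highest concentration. GI50 is the concentration that inhibits growth by half. TGI marks complete inhibition of growth.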

With `CC(=O)[CH-]C(C)=O.CC(=O)[CH-]C(C)=O.CC(=O)[CH-]C(C)=O.[Ga+3]`, the GI50 in the assay with ACHN renal, in the assay with COLO 205 colon, in the assay with EKVX NSCLC, in the assay on MALME-3M melanoma, in the assay with RPMI-8226 leukemia and in the assay on SK-MEL-5 melanoma was above 100 µM each time. In addition, the GI50 in the assay on SNB-75 CNS and with SR leukemia was above 100 µM each time. The TGI in the assay on ACHN renal, with COLO 205 colon, with EKVX NSCLC, in the assay on MALME-3M melanoma, in the assay on RPMI-8226 leukemia and with SK-MEL-5 melanoma was above 100 µM in each case. Also, the TGI in the assay with SNB-75 CNS and in the assay with SR leukemia was above 100 µM throughout.
With `COc1ccc(/C=N\Nc2nc(SCC(C)C)nc(-c3ccc(OC)cc3)c2C#N)cc1`, the GI50 with ACHN renal was 0.71 µM; in the assay with BT-549 breast it was 15.7 µM; with COLO 205 colon it was 3.72 µM; in the assay with EKVX NSCLC, 12.4 µM; in the assay on MALME-3M melanoma, 10.2 µM; with RPMI-8226 leukemia, 5.48 µM. Besides, the GI50 was 13.6 µM with SK-MEL-5 melanoma, 1.67 µM with SNB-75 CNS and 8.69 µM in the assay on SR leukemia. Besides, the TGI in the assay with ACHN renal is 2.37 µM; in the assay on BT-549 breast it was 52.5 µM; in the assay on COLO 205 colon it was 23.4 µM; in the assay on EKVX NSCLC, 86.9 µM; in the assay with MALME-3M melanoma, 47.9 µM; in the assay on RPMI-8226 leukemia, above 100 µM. The TGI with SK-MEL-5 melanoma was found to be 51.2 µM; in the assay on SNB-75 CNS, 8.06 µM; in the assay on SR leukemia, 96 µM.
Consider `O=[N+]([O-])/C=C/c1ccc(Cl)cc1Cl`, for which the TGI is 34.3 µM in the assay with ACHN renal; 38.9 µM with COLO 205 colon; 32.6 µM in the assay on MALME-3M melanoma; 5.66 µM in the assay on RPMI-8226 leukemia; 29.4 µM with SK-MEL-5 melanoma; 34.8 µM in the assay on SNB-75 CNS. In addition, in the assay on SR leukemia, the TGI is 47 µM.
With `C=CC[N+]1(CC)CCN=C1CCCCCCCCCCCCCCCCC` (configuration not stated), the GI50 is 1.19 µM in the assay with ACHN renal, 0.651 µM with COLO 205 colon, 0.237 µM with PC-3 prostate and 0.355 µM with SK-MEL-5 melanoma. The TGI in the assay on ACHN renal worked out at 2.52 µM; with COLO 205 colon, 2.29 µM; in the assay on PC-3 prostate, 0.702 µM; with SK-MEL-5 melanoma, 1.3 µM.
Take `O=C1/C(=C/c2ccccc2O)N=C(c2ccccc2)N1c1cc(C(F)(F)F)ccc1Cl`: the GI50 with ACHN renal is 18.6 µM; in the assay with COLO 205 colon it was above 100 µM; in the assay on EKVX NSCLC, 38.3 µM; in the assay on MALME-3M melanoma, 46.7 µM; with PC-3 prostate it was 42.7 µM; with RPMI-8226 leukemia, above 100 µM. Also, the GI50 in the assay with SK-MEL-5 melanoma was 62.2 µM; in the assay on SNB-75 CNS it was 18.1 µM; in the assay on SR leukemia, 5.51 µM. For the same compound, the TGI is 51.4 µM in the assay with ACHN renal; above 100 µM with COLO 205 colon; above 100 µM in the assay on EKVX NSCLC; above 100 µM with MALME-3M melanoma; above 100 µM in the assay with PC-3 prostate; above 100 µM with RPMI-8226 leukemia. Moreover, the TGI with SK-MEL-5 melanoma was above 100 µM; in the assay on SNB-75 CNS, 37.7 µM; in the assay on SR leukemia, above 100 µM.
As to `CC(=O)CC(=O)CCC(=O)Nc1cccc(C(F)(F)F)c1`, the TGI with ACHN renal, with COLO 205 colon, with EKVX NSCLC, in the assay on MALME-3M melanoma, with RPMI-8226 leukemia and in the assay with SK-MEL-5 melanoma was above 100 µM each time.
For the compound `CC(=O)OCC(CC[CH2][Sn]([Cl])([Cl])[c]1ccccc1)OC(C)=O` (configuration not stated), the GI50 is 23.9 µM in the assay with ACHN renal; 17.3 µM in the assay on COLO 205 colon; 44.4 µM with EKVX NSCLC; 22.9 µM in the assay on RPMI-8226 leukemia; 21.5 µM with SK-MEL-5 melanoma; 55.8 µM in the assay with SNB-75 CNS. In addition, the GI50 in the assay with SR leukemia is 10.7 µM. For the same compound, the TGI with ACHN renal is 42.6 µM; with COLO 205 colon it was 31.2 µM; in the assay on EKVX NSCLC, above 100 µM; with RPMI-8226 leukemia, 58.9 µM; in the assay with SK-MEL-5 melanoma, 55.5 µM; in the assay with SNB-75 CNS it was above 100 µM. The same compound displayed a TGI in the assay with SR leukemia of 50.4 µM.
On to `O=C(CO)C1CC2C=CC1C2` (configuration not stated), for which the TGI in the assay on ACHN renal, in the assay with COLO 205 colon, in the assay on EKVX NSCLC, with MALME-3M melanoma, with RPMI-8226 leukemia and in the assay on SK-MEL-5 melanoma was above 100 µM in each case. The same compound came in with a TGI in the assay with SNB-75 CNS above 100 µM.
For the compound `C[P+]1(c2ccccc2)CCCCC1`, the TGI in the assay with ACHN renal, in the assay on COLO 205 colon, with EKVX NSCLC, in the assay on MALME-3M melanoma, with RPMI-8226 leukemia and in the assay with SK-MEL-5 melanoma was above 100 µM throughout. This compound also returned a TGI with SNB-75 CNS above 100 µM.
With `O=S(=O)(NCCCNc1nccc(-c2c(-c3ccc(F)cc3)nc3sccn23)n1)c1ccc(F)cc1`, the GI50 is 4.61 µM with ACHN renal; 3.9 µM with BT-549 breast; 6.23 µM in the assay on COLO 205 colon; 9.06 µM with MALME-3M melanoma; 9.54 µM in the assay with PC-3 prostate; 5.29 µM with RPMI-8226 leukemia. For the same compound, the GI50 is 4.63 µM in the assay on SK-MEL-5 melanoma and 2.16 µM with SNB-75 CNS. Further, the TGI in the assay on ACHN renal is above 100 µM; in the assay with BT-549 breast, 31.2 µM; in the assay on COLO 205 colon it was above 100 µM; with MALME-3M melanoma, 94.4 µM; in the assay with PC-3 prostate it was above 100 µM; in the assay on RPMI-8226 leukemia, 86 µM. The TGI was determined as 57.9 µM in the assay on SK-MEL-5 melanoma and 16.9 µM in the assay with SNB-75 CNS.
Turning to `C=C1C=CC2(Br)OC3CC(C)(Cl)C(Br)CC13C2(C)C` (configuration not stated), the TGI turned out to be 56.2 µM in the assay on ACHN renal; 30.9 µM in the assay on COLO 205 colon; 61.9 µM with EKVX NSCLC; 34.5 µM with MALME-3M melanoma; 53.1 µM in the assay on RPMI-8226 leukemia; 31 µM in the assay on SK-MEL-5 melanoma. The compound also registered a TGI in the assay with SNB-75 CNS of 77.7 µM.
On to `O=C(c1c(O)cc(O)cc1O)C1Cc2ccccc21` (configuration not stated), for which the TGI in the assay on ACHN renal was above 100 µM; with COLO 205 colon, above 100 µM; in the assay with MALME-3M melanoma, above 100 µM; in the assay with RPMI-8226 leukemia, above 100 µM; in the assay with SK-MEL-5 melanoma, above 100 µM; in the assay on SNB-75 CNS, 60.9 µM. This compound registered a TGI with SR leukemia above 100 µM.
`CCOC(=O)C(CCCNC(=O)OC(C)(C)C)N(Cc1ccc(OC)cc1OC)C(=O)CC(=O)CP(=O)(OCC)OCC` (configuration not stated): the TGI in the assay on ACHN renal, with COLO 205 colon, in the assay with EKVX NSCLC, with MALME-3M melanoma, in the assay on RPMI-8226 leukemia and in the assay with SK-MEL-5 melanoma was above 100 µM each time. Moreover, the TGI in the assay with SNB-75 CNS and in the assay with SR leukemia was above 100 µM throughout.
On to `Cc1ccc(C2=Nc3ccccc3SC(c3cccc4c3OCO4)C2)cc1` (configuration not stated), for which the TGI in the assay on ACHN renal stood at 53.8 µM; in the assay with COLO 205 colon, 35.6 µM; with EKVX NSCLC it was 38.7 µM; in the assay with MALME-3M melanoma it was 56 µM; in the assay on RPMI-8226 leukemia it was 54.2 µM; with SK-MEL-5 melanoma it was 31.1 µM. In the assay on SNB-75 CNS, this compound came in with a TGI of 28.8 µM.
Turning to `O=C(Cc1ccccc1)C(c1ccccc1)S(=O)(=O)c1ccccc1` (configuration not stated), the TGI in the assay with ACHN renal, in the assay with COLO 205 colon, in the assay on EKVX NSCLC, in the assay on MALME-3M melanoma, with RPMI-8226 leukemia and in the assay with SK-MEL-5 melanoma was above 100 µM each time. Besides, the TGI in the assay with SNB-75 CNS and with SR leukemia was above 100 µM throughout.
On to `CC(C)OC(=O)C1Cc2c([nH]c3ccccc23)C(c2ccccc2)N1` (configuration not stated), for which the TGI with ACHN renal was above 100 µM; in the assay on COLO 205 colon, above 100 µM; in the assay on EKVX NSCLC, above 100 µM; in the assay with MALME-3M melanoma, 73.4 µM; in the assay on RPMI-8226 leukemia it was above 100 µM; in the assay with SK-MEL-5 melanoma, above 100 µM. The compound further showed a TGI with SNB-75 CNS of 86.5 µM.
`C/C(=N\NC(=O)C(N)=O)c1c(O)cc(C)oc1=O`: the TGI with ACHN renal, in the assay with EKVX NSCLC, in the assay with MALME-3M melanoma, in the assay with SK-MEL-5 melanoma, in the assay with SNB-75 CNS and in the assay on SR leukemia was above 100 µM each time.
With `C=CC(=O)N[C@@H](/C=C/C(=O)OCC)Cc1ccc(-c2cc(Cl)cc(Cl)c2)cc1`, the GI50 with ACHN renal is 16.1 µM; in the assay on BT-549 breast, 11.9 µM; in the assay with COLO 205 colon, 14.8 µM; in the assay on EKVX NSCLC it was 11.2 µM; with MALME-3M melanoma it was 10.9 µM; in the assay with SK-MEL-5 melanoma, 4.46 µM. The GI50 with SNB-75 CNS was 10.8 µM; in the assay on SR leukemia it was 5.63 µM. Further, the TGI in the assay on ACHN renal was above 100 µM; in the assay with BT-549 breast it was 43.8 µM; in the assay on COLO 205 colon, 53.9 µM; in the assay on EKVX NSCLC it was above 100 µM; in the assay with MALME-3M melanoma, 34.1 µM; in the assay with SK-MEL-5 melanoma, 17.5 µM. In addition, the TGI is 70 µM in the assay on SNB-75 CNS and 44.8 µM in the assay on SR leukemia.
For the compound `CC(N)CC(=O)O` (configuration not stated), the TGI with ACHN renal, in the assay with COLO 205 colon, in the assay with EKVX NSCLC, with MALME-3M melanoma, in the assay on RPMI-8226 leukemia and with SK-MEL-5 melanoma was above 5000 µM each time. The TGI in the assay with SNB-75 CNS and with SR leukemia was above 5000 µM each time.
Consider `CC1CCC2(C)C(CC=C(C=O)C2(O)C=O)C12CO2` (configuration not stated), for which the TGI stood at 3.93 µM in the assay on ACHN renal; 4.29 µM with COLO 205 colon; 23.3 µM in the assay with EKVX NSCLC; 8.74 µM with MALME-3M melanoma; 6.83 µM in the assay with RPMI-8226 leukemia; 5.33 µM with SR leukemia.
